Results on two compounds are retold here after PubChem BioAssay AID977627 (Broad Institute, 2014).

Results filed as inconclusive are left out.

The test system of the assay is E. coli H38 humanized ribosome GFP strain, fluorescence, 24 h. The assay can be described thus: E. coli strain growth, wild-type against H38 humanized mutant – H38 mutant GFP vs wild-type RFP, cherry-pick, dose response (AID 977627). The following applies: measured here: total growth OD600.

In turn, `COC(=O)c1c(NC(=O)CCC(=O)O)sc(Cc2ccccc2)c1C` had an AC50 of more than 100 µM.

`CC1(Cc2ccccc2C#N)C(=O)Nc2cc(-c3ccccc3Cl)ccc21` (configuration not stated) registered an AC50 of 41.9 µM.

Usually AC50 stands for the concentration giving half of the maximal activity seen. Lower therefore signals greater potency.
